# Laboratory results taken from ChEMBL document CHEMBL2074256, “HIV protease inhibitors are inhibitors but not substrates of the human breast cancer resistance protein (BCRP/ABCG2)” (J Pharmacol Exp Ther, 2004).
# Target: T1, Broad substrate specificity ATP-binding cassette transporter ABCG2 (Homo sapiens, UniProt Q9UNQ0)
# T1 sequence (Q9UNQ0 whole entry): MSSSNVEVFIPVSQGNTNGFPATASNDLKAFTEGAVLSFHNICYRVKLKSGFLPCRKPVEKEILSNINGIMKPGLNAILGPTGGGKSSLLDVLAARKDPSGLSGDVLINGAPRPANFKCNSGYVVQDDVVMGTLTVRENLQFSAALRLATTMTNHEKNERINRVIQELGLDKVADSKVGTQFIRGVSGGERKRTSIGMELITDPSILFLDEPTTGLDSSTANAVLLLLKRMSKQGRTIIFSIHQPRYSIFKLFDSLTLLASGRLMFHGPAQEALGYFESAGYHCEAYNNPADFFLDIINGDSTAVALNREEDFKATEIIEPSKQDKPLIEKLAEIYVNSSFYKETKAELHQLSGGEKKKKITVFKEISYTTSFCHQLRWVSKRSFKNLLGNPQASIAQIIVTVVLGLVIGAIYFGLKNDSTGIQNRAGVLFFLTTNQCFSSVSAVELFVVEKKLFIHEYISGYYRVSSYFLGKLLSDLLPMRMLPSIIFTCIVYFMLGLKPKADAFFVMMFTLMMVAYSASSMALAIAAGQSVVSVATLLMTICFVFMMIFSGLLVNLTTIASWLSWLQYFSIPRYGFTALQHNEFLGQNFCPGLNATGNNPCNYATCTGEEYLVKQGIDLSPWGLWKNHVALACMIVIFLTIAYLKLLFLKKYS
# Assay: TP_TRANSPORTER: increase in mitoxantrone intracellular accumulation in BCRP-expressing HEK cells
# Type: functional, cell-based, HEK293
row,Structure (SMILES),IC50 [µM]
1,CC(C)(C)NC(=O)[C@@H]1C[C@@H]2CCCC[C@@H]2CN1C[C@@H](O)[C@H](Cc1ccccc1)NC(=O)[C@H](CC(N)=O)NC(=O)c1ccc2ccccc2n1,19.5
2,Cc1c(O)cccc1C(=O)N[C@@H](CSc1ccccc1)[C@H](O)CN1C[C@H]2CCCC[C@H]2C[C@H]1C(=O)NC(C)(C)C,12.5
